# Measured values as given in US12612412B2, “Antiviral heterocyclic compounds” (Enanta Pharmaceuticals, Inc., priority 2021, dated 2026).
# Tested on: genotype A, "Long" strain RSV
# Test: RSV-A assay (CPE protection in Hep-2 cells, ATPlite readout)
# Assay type: cell-based, Human respiratory syncytial virus (HRSV)
# Details: human respiratory syncytial virus, RSV-A Long strain, MOI 0.1, CPE protection, read-out: Human RSV-A (“Long”) EC50
# Outline: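 In this cytopathic-effect protection format, infected Hep-2 cultures (MOI 0.1) are exposed to compound for 5 days. Surviving cell ATP is quantified with ATPlite, and EC50 is determined.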
row,EC50 [nM],SMILES
1,< 200,COc1cc(C(=O)NC[C@](O)(c2cc3c(c(-c4ccc(F)cc4)n2)OC[C@]3(C(N)=O)C(F)F)C(F)(F)F)cc2cn(C3CC3)nc12 [Example 998]
2,< 200,Cc1cnc2c(OC(F)F)cc(C(=O)NC[C@](O)(c3cc4c(c(-c5ccc(F)c(C(F)(F)F)c5)n3)OC[C@]4(C)C(N)=O)C3CC3)cc2c1 [Example 1208]
3,< 200,COc1cc(C(=O)NC[C@](O)(c2cc3c(c(-c4cc(F)cc(F)c4Cl)n2)OC[C@]3(C)C(N)=O)C(F)(F)F)cc2cn(C3CC3)nc12 [Example 1261]
4,< 200,COc1cc(C(=O)NC[C@](O)(c2cc3c(c(-c4ccc(F)cc4)n2)OC[C@]3(C)C(=O)NC2(C)CC2)C(F)(F)F)cc2cn(C3CC3)nc12 [Example 1176]
5,< 200,COc1cc(C(=O)NC[C@](O)(c2cc3c(c(-c4cc(Cl)cc(F)c4F)n2)OC[C@]3(C)C(N)=O)C(F)(F)F)cc2cn(C3CC3)nc12 [Example 1243]
6,< 200,COc1cc(C(=O)NCC(O)(c2cc3c(c(-c4cc(F)c(Cl)c(Cl)c4)n2)OC[C@]3(C)C(N)=O)C(F)(F)F)cc2cn(C3CC3)nc12 (some centres unmarked) [Example 1266]
7,< 200,COc1cc(C(=O)NC[C@](O)(c2cc3c(c(-c4ccc(F)cc4)n2)OC[C@]3(C)C(N)=O)C(F)(F)F)cn2nc(N)cc12 [Example 881]
8,< 200,COc1cc(C(=O)NC[C@](O)(c2cc3c(c(-c4cc(Cl)c(F)cc4F)n2)OC[C@]3(C)C(N)=O)C2(F)CC2)cc2cn(C(F)F)nc12 [Example 1112]
9,< 200,COc1cc(C(=O)NC[C@](O)(c2cc3c(c(-c4ccc(F)cc4)n2)OC[C@]3(C)C(N)=O)C2(F)CC2)cc2cc(Br)c(C)nc12 [Example 1118]
10,< 200,CCNC(=O)[C@@]1(C)COc2c1cc([C@@](O)(CNC(=O)c1cc(OC)c3nn(C4CC4)cc3c1)C(F)(F)F)nc2-c1ccc(F)cc1 [Example 1171]
11,< 200,COc1cc(C(=O)NC[C@](O)(c2cc3c(c(-c4cc(F)ccc4F)n2)OC[C@]3(C)C(N)=O)C2CC2)cc2cn(C3CC3)nc12 [Example 1282]
12,< 200,COc1cc(C(=O)NC[C@](O)(c2cc3c(c(-c4c(F)ccc(Cl)c4Cl)n2)OC[C@]3(C)C(N)=O)C(F)(F)F)cc2cn(C3CC3)nc12 [Example 1263]
13,< 200,COc1cc(C(=O)NC[C@@](O)(c2cc3c(c(-c4ccc(F)cc4F)n2)OC[C@]3(C)C(N)=O)C(F)(F)F)cc2cn(C3CC3)nc12 [Example 900]
14,< 200,COc1cc(C(=O)NC[C@](O)(c2cc3c(c(-c4ccc(F)cc4)n2)OC[C@]3(C)C(=O)NC2CC2)C(F)(F)F)cc2cn(C3CC3)nc12 [Example 1172]
15,< 200,COc1cc(C(=O)NC[C@](O)(c2cc3c(c(-c4ccc(F)cc4)n2)OC[C@]3(C)C(N)=O)C2CC2)cc2cc(C3CC3)nnc12 [Example 1109]
16,< 200,COc1cc(C(=O)NC[C@](O)(c2cc3c(c(-c4cc(Cl)c(F)cc4Cl)n2)OC[C@]3(C)C(N)=O)C2CC2)cc2cn(C3CC3)nc12 [Example 1275]

# Same assay, conditions: human respiratory syncytial virus, genotype A “Long” strain RSV, MOI 0.1, CPE protection, read-out: Human RSV-A (“Long”)
row,EC50 [nM],SMILES
1,> 200,C[C@]1(C(N)=O)COc2c1cc([C@@](O)(CNC(=O)c1cn3cc(OC(F)(F)F)ccc3n1)C(F)(F)F)nc2-c1ccc(F)cc1 [Example 814]
2,> 200,Cc1ccnnc1C(=O)NC[C@](O)(c1cc2c(c(-c3ccc(F)cc3)n1)OC[C@]2(C)C(N)=O)C(F)(F)F [Example 416]
3,< 200,Cc1cc2cc(C(=O)NC[C@](O)(c3cc4c(c(-c5ccc(F)cc5)n3)OC[C@]4(C)C(N)=O)C(F)(F)F)ccc2[nH]1 [Example 171]
4,< 200,C[C@]1(C(N)=O)COc2c1cc([C@@](O)(CNC(=O)c1cnc3[nH]ccc3c1)C(F)(F)F)nc2-c1ccc(F)cc1 [Example 380]
5,< 200,CC[C@]1(C(N)=O)COc2c1cc([C@@](O)(CNC(=O)c1cc(OC)c3ncc(C(F)(F)F)cc3c1)C(F)(F)F)nc2-c1ccc(F)cc1 [Example 239]
6,> 200,C[C@]1(C(N)=O)COc2c1cc([C@@](O)(CNC(=O)c1nc3cc(F)ccc3[nH]1)C(F)(F)F)nc2-c1ccc(F)cc1 [Example 405]
7,> 200,Cc1ccn2cc(C(=O)NC[C@](O)(c3cc4c(c(-c5ccc(F)cc5)n3)OC[C@]4(C)C(N)=O)C(F)(F)F)nc2c1 [Example 805]
8,< 200,C[C@]1(C(N)=O)COc2c1cc([C@@](O)(CNC(=O)c1cc3cnccc3[nH]1)C(F)(F)F)nc2-c1ccc(F)cc1 [Example 370]
9,> 200,C[C@]1(C(N)=O)COc2c1cc([C@@](O)(CNC(=O)c1nc3ccccc3[nH]1)C(F)(F)F)nc2-c1ccc(F)cc1 [Example 420]
10,> 200,COc1cc(C(=O)NC[C@](O)(c2cc3c(c(-c4ccc(F)cc4)n2)OC[C@]3(C)C(N)=O)C(F)(F)F)cc2c1cnn2C1CC1 [Example 144]
11,> 200,C[C@]1(C(N)=O)COc2c1cc([C@@](O)(CNC(=O)c1ccc3sccc3c1)C(F)(F)F)nc2-c1ccc(F)cc1 [Example 357]
12,> 200,Cc1cccn2cc(C(=O)NC[C@](O)(c3cc4c(c(-c5ccc(F)cc5)n3)OC[C@]4(C)C(N)=O)C(F)(F)F)nc12 [Example 806]
13,< 200,COc1cc(C(=O)NC[C@](O)(c2cc3c(c(-c4ccc(F)cc4)n2)OC[C@@]3(C(N)=O)C2CC2)C(F)(F)F)ccc1OC1CC1 [Example 276]
14,> 200,Cc1c(C(=O)NC[C@](O)(c2cc3c(c(-c4ccc(F)cc4)n2)OC[C@]3(C)C(N)=O)C(F)(F)F)sc2ccccc12 [Example 435]
15,< 200,CC(C)(O)CNC(=O)[C@@]1(C)COc2c1cc([C@@](O)(CNC(=O)c1ccc3c(c1)CN(C1CC1)C3=O)C(F)(F)F)nc2-c1ccc(F)cc1 [Example 35]
16,> 200,C[C@]1(C(N)=O)COc2c1cc([C@@](O)(CNC(=O)c1ccc[nH]1)C(F)(F)F)nc2-c1ccc(F)cc1 [Example 391]
17,< 200,COc1cc(C(=O)NC[C@](O)(c2cc3c(c(-c4ccc(F)cc4)n2)OCC3(C(N)=O)C(F)F)C(F)(F)F)cn2cc(C3CC3)nc12 (some centres unmarked) [Example 259]
18,> 200,C[C@]1(C(N)=O)COc2c1cc([C@@](O)(CNC(=O)c1cc3cc[nH]c3cc1F)C(F)(F)F)nc2-c1ccc(F)cc1 [Example 400]
19,< 200,C[C@@H](O)COc1ccc(C(=O)NC[C@](O)(c2cc3c(c(-c4ccc(F)cc4)n2)OC[C@]3(CF)C(N)=O)C(F)(F)F)cc1OC1CC1 [Example 294]
20,< 200,C[C@]1(C(N)=O)COc2c1cc([C@@](O)(CNC(=O)c1cnn(C3CC3)c1)C(F)(F)F)nc2-c1ccc(F)cc1 [Example 461]

row,EC50 [nM],SMILES
1,< 200,COc1cc(C(=O)NC[C@](O)(c2cc3c(c(-c4ccc(F)cc4)n2)OC[C@]3(C)C(N)=O)C(F)(F)F)cc2c1NC(=O)C2 [Example 225]
2,< 200,COc1cc(C(=O)NC[C@](O)(c2cc3c(c(-c4ccc(F)c(Cl)c4)n2)OC[C@]3(C)C(N)=O)C(F)(F)F)cc2cn(C(F)F)nc12 [Example 46]
3,> 200,NC(=O)[C@]1(CF)COc2c1cc([C@@](O)(CNC(=O)c1cc(OC3CC3)c3ncccc3c1)C(F)(F)F)nc2-c1ccc(F)cc1 [Example 296]
4,> 200,COc1cc(C(=O)NC[C@](O)(c2cc3c(c(-c4ccc(F)cc4)n2)OC[C@]3(C)C(N)=O)C(F)(F)F)cc2cc(C)c(C(=O)O)nc12 [Example 5]
5,> 200,C[C@]1(C(N)=O)COc2c1cc([C@@](O)(CNC(=O)c1cc3ccccc3o1)C(F)(F)F)nc2-c1ccc(F)cc1 [Example 378]
6,> 200,NC(=O)[C@]1(CF)COc2c1cc([C@@](O)(CNC(=O)c1cc(F)c3nc(N)sc3c1)C(F)(F)F)nc2-c1ccc(F)cc1 [Example 289]
7,> 200,Cc1cc[nH]c1C(=O)NC[C@](O)(c1cc2c(c(-c3ccc(F)cc3)n1)OC[C@]2(C)C(N)=O)C(F)(F)F [Example 362]
8,> 200,C[C@]1(C(N)=O)COc2c1cc([C@@](O)(CNC(=O)c1ccc3[nH]ccc3c1F)C(F)(F)F)nc2-c1ccc(F)cc1 [Example 438]
9,> 200,C[C@]1(C(N)=O)COc2c1cc([C@@](O)(CNC(=O)c1csc3ccccc13)C(F)(F)F)nc2-c1ccc(F)cc1 [Example 376]
10,> 200,COc1cc(C(=O)NC[C@](O)(c2cc3c(c(-c4ccc(F)cc4)n2)OC[C@@]3(CF)C(N)=O)C(F)(F)F)cn2cc(C3CC3)nc12 [Example 291]
11,< 200,COc1cc(C(=O)NC[C@](O)(c2cc3c(c(-c4ccc(F)cc4)n2)OC[C@]3(C)C(N)=O)C(F)(F)F)cn2cc(C(N)=O)nc12 [Example 61]
12,< 200,C[C@]1(C(N)=O)COc2c1cc([C@@](O)(CNC(=O)c1ccn3nc(C4CC4)cc3c1)C1CC1)nc2-c1ccc(F)c(Cl)c1 [Example 492]
13,> 200,C[C@]1(C(N)=O)COc2c1cc([C@@](O)(CNC(=O)c1cc3ccccn3n1)C(F)(F)F)nc2-c1ccc(F)cc1 [Example 392]
14,> 200,C[C@]1(C(N)=O)COc2c1cc([C@@](O)(CNC(=O)c1ccc3[nH]c(C4CC4)nc3c1)C(F)(F)F)nc2-c1ccc(F)cc1 [Example 193]
15,> 200,C[C@]1(C(N)=O)COc2c1cc([C@@](O)(CNC(=O)c1c[nH]c3c(Cl)cccc13)C(F)(F)F)nc2-c1ccc(F)cc1 [Example 350]
16,< 200,COc1cc(C(=O)NC[C@](O)(c2cc3c(c(-c4ccc(F)cc4)n2)OCC3(C(N)=O)C(F)F)C(F)(F)F)cc2cccnc12 (some centres unmarked) [Example 254]
17,> 200,C[C@]1(C(N)=O)COc2c1cc([C@@](O)(CNC(=O)c1cccc3nccn13)C(F)(F)F)nc2-c1ccc(F)cc1 [Example 360]
18,> 200,CC(C)Oc1ccc2nc(C(=O)NC[C@](O)(c3cc4c(c(-c5ccc(F)cc5)n3)OC[C@]4(C)C(N)=O)C(F)(F)F)cn2c1 [Example 812]
19,> 200,C[C@]1(C(N)=O)COc2c1cc([C@@](O)(CNC(=O)c1cc3cc[nH]c3cn1)C(F)(F)F)nc2-c1ccc(F)cc1 [Example 384]
20,< 200,COc1cc(C(=O)NC[C@](O)(c2cc3c(c(-c4ccc(F)cc4)n2)OC[C@]3(C)C(N)=O)C2CC2)cc2cc(Cl)c(C)nc12 [Example 319]
